{"source": "patent US20070265245A1", "about": "“S-Mirtazapine For The Treatment Of Hot Flush” (N.V. Organon, priority 2004, published 2007)", "assay_type_in_all_cases": "in vivo", "key": {"[1]": {"test": "Body weight of treated rats before and after treatment period", "settings": "experiment 1, 10 mg/kg i.p., 5 days", "description": "(§1) Body weights of the rats were determined before and after the treatment period. Data were expressed as mean ±S.E.M. unless otherwise specified. For testing statistical significance the Analysis of Variance (ANOVA) was used. The data were logarithmically transformed to normalize variations. A value of P<0.05 was considered to be significant."}, "ovariectomized rats [2]": {"test_system": "ovariectomized rats", "test": "Locomotor activity of ovariectomized rats, telemetry", "settings": "for locomotor activity (decrease to): from the first treatment onwards, vehicle around 1.2 cpm", "description": "(§2) The effect of the maleate salt of S-mirtazapine was measured in an animal model for hot flushes. The model is based on the observation that the drop in tail skin temperature at the transition from the rest to the active phase in rats is attenuated after ovariectomy. The locomotor activity of the rats was also measured.\n(§3) Tail skin temperature of the rats was measured by use of the telemetry system from Data Sciences International (DSI), a division of Transoma Medical, Inc., USA. This system comprises implantable wireless transmitters (TA10TA-F40 W/TP), receivers (RPC-1 and RLA1020), a data exchange matrix (DEM), and a data acquisition and analysis system (DQ ART 2.2 silver version).\n(§4) The S-mirtazapine maleate was dissolved in 0.9% saline with 5% mulgofen. Compound and vehicle were administered intraperitoneally. Sham placebo and ovariectomized(OVX)/placebo groups received 2 ml/kg/day saline and compound treated groups received 10, 30 or 100 mg/kg/day in a volume of 2 ml/kg/day. Here, the indicated amounts refer to the weight of the maleate salt of S-mirtazepine.\n(§5) Female rats from the Crl:WU strain, weighing 225-250 g at arrival, were supplied by CPB Harlan, The Netherlands. Rats were housed individually in Macrolon™ cages (38×22×15 cm) with a sawdust bedding and “Enviro Dry™” as cage enrichment. The day after arrival the rats were ovariectomized or sham operated and the transmitter was implanted intraperitoneally under isoflurane aneasthesia. After surgery the rats were placed in a temperature controlled room (21.5±1° C.) with an adapted light/dark cycle (lights off 9:30 h a.m., lights on 7:30 h p.m.). They were allowed to recover from surgery and to adapt to the light/dark cycle for at least 2 weeks. Food and water were given ad libitum.\n(§6) Treatment groups were randomized over the OVX groups. The rats were injected intraperitoneally with vehicle or S-mirtazapine maleate once a day at 11:00 a.m. for a period of 5 days. The tail skin temperature and the locomotor activity of the rats were measured every 5 minutes continuously, but the measurements between 12:00 and 02:00 pm (in which period the maximal effect of S-mirtazapine was observed) were used for calculations of the treatment effects. During this period the rats remained completely undisturbed. Before 9:30 am (the time the light turned off) the rats could be taken care of.\nas §1\nData were collected for each rat for 7 seconds every 5 minutes during two hours starting one hour after drug administration (11:00 a.m.). The mean tail skin temperature over this 2-h period was calculated for each rat. In addition, the group means were calculated together with the standard error of the mean (SEM). The tail skin temperature is expressed in degrees centigrade (°C.) and locomotor activity in counts per minutes (cpm).\nThe number of animals in the different test groups varied between 5-8."}, "ovariectomized rats [3]": {"test_system": "ovariectomized rats", "test": "Tail skin temperature in ovariectomized rats (animal model for hot flushes), telemetry", "settings": "for restoration of the attenuation of the OVX-induced drop in tail skin temperature: summary; for TST lower than the sham operated group: from day 2 onwards", "description": "as §2, §3, §4, §5\nThe left and right flank and the rear end of the back above the tail implant of the rat were shaved. The rats were anaesthetized with isoflurane (FORENE®/1-chloro-2,2,2,-trifluorethyl-difluoromethyl-ether, Abbott). The operation area was disinfected with Hibicet® (1.5% m/v chloorhexidinedigluconaat and 1.5% m/v cetrimide). The rats were bilateral ovariectomized (OVX) or sham operated. The incision made in the right flank was also used to implant the transmitter in the peritoneal cavity. When closing the abdomen the transmitter was fixed to the abdominal muscles with stitches.\nOn the back of the rat in height of the hips, a small incision in the skin was made and the thermistor-tipped probe was led to the back of the rat. From here the probe was brought under the skin in the tail to about 2 cm from the base of the tail. The lead was fixed with a stitch at the musculus biceps femoris. To complete the operation the skin was closed with wound clips. Immediately after surgery the rats were treated with the analgesic buprenorphine 50 μg/kg sc (Temgesic®, Schering-Plough).\nas §6, §1\nData were collected for each rat for 7 seconds every 5 minutes during two hours starting one hour after drug administration (11:00 a.m.). The mean tail skin temperature over this 2-h period was calculated for each rat. […]"}}}
{"molecule": "CN1CCN2c3ncccc3Cc3ccccc3[C@H]2C1.O=C(O)/C=C\\C(=O)O", "note": "[S-mirtazapine maleate]", "values": [{"measurement": "effect on body weight (BW)", "setting": "[1]", "value": "no significant effect"}, {"measurement": "locomotor activity", "setting": "ovariectomized rats [2]; 30 mg/kg, summary, effect not statistically significant", "value": "reduced"}, {"measurement": "locomotor activity compared to OVX placebo group", "setting": "ovariectomized rats [2]; experiment 1, 10 mg/kg i.p.", "value": "no significant effect"}, {"measurement": "locomotor activity compared to sham operated placebo group", "setting": "ovariectomized rats [2]; experiment 1, 10 mg/kg/day i.p., day 3", "value": "significant reduction"}, {"measurement": "effect on locomotor activity", "setting": "ovariectomized rats [2]; experiment 2, 10 mg/kg/day, rest of experiment at level of placebo treated OVX rats", "value": "only an effect on locomotor activity after the first treatment"}, {"measurement": "locomotor activity at the end of the treatment period", "setting": "ovariectomized rats [2]; experiment 2, 30 mg/kg i.p.", "value": "about 0.5 cpm"}, {"measurement": "drop in locomotor activity", "setting": "ovariectomized rats [2]; experiment 2, 30 mg/kg i.p., after 5 days treatment", "value": 50, "unit": "%"}, {"measurement": "locomotor activity (decrease to)", "setting": "ovariectomized rats [2]; experiment 2, 30 mg/kg i.p.", "value": "about 0.5 cpm"}, {"measurement": "locomotor activity at the end of the treatment period", "setting": "ovariectomized rats [2]; experiment 2, 100 mg/kg i.p.", "value": "increased to the level of the vehicle treated rats"}, {"measurement": "locomotor activity (decrease to)", "setting": "ovariectomized rats [2]; experiment 2, 100 mg/kg i.p.", "value": "about 0.5 cpm"}, {"measurement": "locomotor activity after 5 days treatment compared to the OVX placebo group", "setting": "ovariectomized rats [2]; experiment 2, any dose group (10, 30, 100 mg/kg)", "value": "No statistically significant effect"}, {"measurement": "restoration of the attenuation of the OVX-induced drop in tail skin temperature", "setting": "ovariectomized rats [3]; 10 mg/kg i.p., OVX rats", "value": "not"}, {"measurement": "restoration of the attenuation of the OVX-induced drop in tail skin temperature", "setting": "ovariectomized rats [3]; 30 mg/kg i.p., OVX rats", "value": "restored"}, {"measurement": "effect against hot flush (conclusion)", "setting": "ovariectomized rats [3]; 30 mg/kg in rats", "value": "effect against hot flush"}, {"measurement": "effect against hot flush (conclusion)", "setting": "ovariectomized rats [3]; 100 mg/kg in rats", "value": "effect against hot flush"}, {"measurement": "increase in TST after the first treatment day", "setting": "ovariectomized rats [3]; experiment 1, 10 mg/kg/day i.p., OVX rats", "value": "approximately 2 °C"}, {"measurement": "effect on tail skin temperature on day 5", "setting": "ovariectomized rats [3]; experiment 1, 10 mg/kg/day i.p., day 5", "value": "no effect"}, {"measurement": "TST after the end of treatment", "setting": "ovariectomized rats [3]; experiment 1, 10 mg/kg/day i.p., all groups returned to normal values for OVX rats", "value": "about 29 °C"}, {"measurement": "TST during the treatment period", "setting": "ovariectomized rats [3]; experiment 1, 10 mg/kg/day i.p., compared to sham/placebo and compared to OVX/placebo at day 4", "value": "significantly higher level"}, {"measurement": "tail skin temperature compared to the OVX rats after 5 consecutive days", "setting": "ovariectomized rats [3]; experiment 2, 10 mg/kg", "value": "no effect"}, {"measurement": "increase in TST after the first treatment", "setting": "ovariectomized rats [3]; experiment 2, 10 mg/kg/day i.p.", "value": "1-3 °C"}, {"measurement": "TST during the treatment period compared to the OVX rats", "setting": "ovariectomized rats [3]; experiment 2, 10 mg/kg/day i.p., day 2 and 3", "value": "significantly higher level"}, {"measurement": "TST after end of treatment", "setting": "ovariectomized rats [3]; experiment 2, 10 mg/kg/day i.p., returned to normal TST values of OVX rats", "value": "28-29 °C"}, {"measurement": "TST after the end of treatment", "setting": "ovariectomized rats [3]; experiment 2, 30 mg/kg i.p.", "value": "returned to normal values of OVX rats"}, {"measurement": "TST compared to the sham operated group after 5 consecutive days", "setting": "ovariectomized rats [3]; experiment 2, 30 mg/kg i.p.", "value": "statistically significantly below"}, {"measurement": "restoration of the fall in TST", "setting": "ovariectomized rats [3]; experiment 2, 30 mg/kg i.p.", "value": "significantly restored"}, {"measurement": "tail skin temperature compared to the OVX group after 5 consecutive days", "setting": "ovariectomized rats [3]; experiment 2, 30 mg/kg i.p.", "value": "significant decrease"}, {"measurement": "TST versus sham operated placebo group on day 5", "setting": "ovariectomized rats [3]; experiment 2, 30 mg/kg i.p., day 5", "value": "statistically significantly different"}, {"measurement": "TST lower than the sham operated group", "setting": "ovariectomized rats [3]; experiment 2, 30 mg/kg i.p.", "value": "2-4 °C"}, {"measurement": "TST after the end of treatment", "setting": "ovariectomized rats [3]; experiment 2, 100 mg/kg i.p.", "value": "stayed up to 2 days after the end of treatment at a lower level"}, {"measurement": "restoration of the fall in TST", "setting": "ovariectomized rats [3]; experiment 2, 100 mg/kg i.p.", "value": "significantly restored"}, {"measurement": "tail skin temperature compared to the OVX group after 5 consecutive days", "setting": "ovariectomized rats [3]; experiment 2, 100 mg/kg i.p.", "value": "significant decrease"}, {"measurement": "TST lower than the sham operated group", "setting": "ovariectomized rats [3]; experiment 2, 100 mg/kg i.p.", "value": "2-4 °C"}]}
